ChEMBL document CHEMBL3046383, “Enantioselective Herbicidal Activity of Chiral α-Methylbenzylphenylureas against Cyperaceae and Echinochloa Paddy Weeds” (Biosci Biotechnol Biochem, 1998)
The source made the active and inactive calls. No rule for the calls is given here.

Experiments:
Echinochloa oryzicola = experiment: Herbicidal activity against Echinochloa oryzicola assessed as phytotoxic activity ratings (0- no effect to 5-complete killing rating scale) at 100 g/a measured after 3 weeks post compound treatment under green house conditions; format: functional
Cyperus difformis = experiment: Herbicidal activity against Cyperus difformis assessed as phytotoxic activity ratings (0- no effect to 5-complete killing rating scale) at 100 g/a measured after 3 weeks post compound treatment under green house conditions; format: functional
Oryza sativa [1] = experiment: Phytotoxicity against directly seeded Oryza sativa (rice) seedlings assessed as phytotoxic activity ratings (0- no effect to 5-complete killing rating scale) at 100 g/a measured after 3 weeks post compound treatment under green house conditions; format: organism-based; conditions: in vivo, 504 h
[2] = system: Schoenoplectiella juncoides; experiment: Herbicidal activity against Schoenoplectiella juncoides var. Hotarui Ohwi assessed as phytotoxic activity ratings (0- no effect to 5-complete killing rating scale) at 100 g/a measured after 3 weeks post compound treatment under green house conditions; format: functional
Oryza sativa [3] = experiment: Phytotoxicity against transplanted Oryza sativa (rice) seedlings assessed as phytotoxic activity ratings (0- no effect to 5-complete killing rating scale) at 100 g/a measured after 3 weeks post compound treatment under green house conditions; format: organism-based; conditions: in vivo, 504 h
Cyperus serotinus = experiment: Herbicidal activity against Cyperus serotinus assessed as phytotoxic activity ratings (0- no effect to 5-complete killing rating scale) at 3.1 to 100 g/a measured after 3 weeks post compound treatment under green house conditions; format: functional

| SMILES | Activity (Echinochloa oryzicola) [%] | Activity (Cyperus difformis) [%] | Activity (Oryza sativa [1]) [%] | Activity [2] [%] | Activity (Oryza sativa [3]) [%] | Activity (Cyperus serotinus) |
| --- | --- | --- | --- | --- | --- | --- |
| CC(=O)c1ccccc1NC(=O)N[C@H](C)c1ccccc1 | 0 | 0 | 0 | 0 | 0 | inactive |
| CCCCCCCc1ccc(NC(=O)N[C@@H](C)c2ccccc2)cc1 | 0 | 0 | 0 | 0 | 0 | inactive |
| CC(=O)c1ccccc1NC(=O)N[C@@H](C)c1ccccc1 | 0 | 0 | 0 | 0 | 0 | inactive |
| Cc1ccc(NC(=O)N[C@H](C)c2ccccc2)c(F)c1 | 0 | 0 | 0 | 0 | 0 | inactive |
| CCCc1ccc(NC(=O)N[C@@H](C)c2ccccc2)cc1 | 10 | 40 | 0 | 0 | 0 | – |
| Cc1ccc(NC(=O)N[C@@H](C)c2ccccc2)c(F)c1 | 0 | 0 | 0 | 0 | 0 | inactive |
| C[C@H](NC(=O)Nc1ccc(C(F)(F)F)cc1)c1ccccc1 | 0 | 0 | 0 | 0 | 0 | inactive |
| C[C@@H](NC(=O)Nc1ccc(Cl)cc1)c1ccccc1 | 0 | 0 | 0 | 0 | 0 | inactive |
| COc1ccccc1NC(=O)N[C@H](C)c1ccccc1 | 0 | 0 | 0 | 0 | 0 | inactive |
| C[C@@H](NC(=O)Nc1ccc(F)c(F)c1)c1ccccc1 | 0 | 0 | 0 | 0 | 0 | inactive |
| C[C@H](NC(=O)Nc1ccc(Cl)cc1)c1ccccc1 | 0 | 0 | 0 | 0 | 0 | inactive |
| C[C@H](NC(=O)Nc1cccc(I)c1)c1ccccc1 | 0 | 10 | 0 | 0 | 0 | inactive |
| CCCCc1ccc(NC(=O)N[C@@H](C)c2ccccc2)cc1 | 10 | 0 | 10 | 0 | 0 | inactive |
| C[C@@H](NC(=O)Nc1ccc(Br)cc1)c1ccccc1 | 0 | 0 | 0 | 0 | 0 | inactive |
| C[C@@H](NC(=O)Nc1ccc(C(F)(F)F)cc1)c1ccccc1 | 0 | 0 | 0 | 0 | 0 | inactive |
| C[C@@H](NC(=O)Nc1cc(C(F)(F)F)ccc1F)c1ccccc1 | 80 | 0 | 10 | 0 | 0 | inactive |
| CCCCCc1ccc(NC(=O)N[C@H](C)c2ccccc2)cc1 | 0 | 0 | 0 | 0 | 0 | inactive |

| SMILES | Activity (Echinochloa oryzicola) [%] | Activity (Cyperus difformis) [%] | Activity (Oryza sativa [1]) [%] | Activity [2] [%] | Activity (Oryza sativa [3]) [%] | Activity (Cyperus serotinus) |
| --- | --- | --- | --- | --- | --- | --- |
| CC(=O)c1ccc(NC(=O)N[C@@H](C)c2ccccc2)cc1 | 0 | 0 | 0 | 0 | 0 | inactive |
| C[C@@H](NC(=O)Nc1ccc(Cl)c(Cl)c1)c1ccccc1 | 0 | 0 | 0 | 0 | 0 | inactive |
| COc1ccc(NC(=O)N[C@H](C)c2ccccc2)cc1 | 0 | 0 | 0 | 0 | 0 | inactive |
| C[C@@H](NC(=O)Nc1cccc(F)c1)c1ccccc1 | 0 | 10 | 0 | 0 | 0 | inactive |
| C[C@H](NC(=O)Nc1cccc(F)c1)c1ccccc1 | 10 | 10 | 10 | 0 | 0 | inactive |
| C[C@H](NC(=O)Nc1cccc(Br)c1)c1ccccc1 | 0 | 10 | 0 | 0 | 0 | inactive |
| C[C@H](NC(=O)Nc1ccc(Cl)c(Cl)c1)c1ccccc1 | 0 | 0 | 0 | 0 | 0 | inactive |
| C[C@@H](NC(=O)Nc1ccccc1Cl)c1ccccc1 | 0 | 10 | 0 | 0 | 0 | inactive |
| C[C@H](NC(=O)Nc1ccccc1Br)c1ccccc1 | 0 | 10 | 0 | 0 | 0 | inactive |
| CCOC(=O)c1ccccc1NC(=O)N[C@H](C)c1ccccc1 | 0 | 0 | 0 | 0 | 0 | inactive |
| CCCCCCc1ccc(NC(=O)N[C@H](C)c2ccccc2)cc1 | 0 | 0 | 0 | 0 | 0 | inactive |
| C[C@H](NC(=O)Nc1cc(F)cc(F)c1)c1ccccc1 | 10 | 0 | – | 0 | 0 | inactive |
| C[C@@H](NC(=O)Nc1cccc(C(F)(F)F)c1F)c1ccccc1 | 0 | 0 | 0 | – | 0 | inactive |
| C[C@H](NC(=O)Nc1cc(C(C)(C)C)ccc1C(C)(C)C)c1ccccc1 | 0 | 0 | 0 | – | 0 | inactive |
| C[C@@H](NC(=O)Nc1ccccc1I)c1ccccc1 | 0 | 10 | 0 | – | 0 | inactive |
| C[C@H](NC(=O)Nc1ccc(Br)cc1)c1ccccc1 | 0 | 0 | 0 | – | 0 | inactive |
